Test results from patent publication US7943629B2, “Sulphimides as protein kinase inhibitors” (Bayer Schering Pharma AG, priority 2006, dated 2011).

How the values were obtained:
[1] = target: T1, Aurora-C (Homo sapiens, UniProt Q9UQB9); test: Aurora-C kinase assay; format: biochemical; settings: for IC50: 3 μM ATP, 22° C., 90 min; for inhibition of Aurora C kinase (in words): summary of Tab. 1
T1 construct: made in house; host or cells: transiently transfected HEK293 cells
T1 sequence (Q9UQB9 1-309): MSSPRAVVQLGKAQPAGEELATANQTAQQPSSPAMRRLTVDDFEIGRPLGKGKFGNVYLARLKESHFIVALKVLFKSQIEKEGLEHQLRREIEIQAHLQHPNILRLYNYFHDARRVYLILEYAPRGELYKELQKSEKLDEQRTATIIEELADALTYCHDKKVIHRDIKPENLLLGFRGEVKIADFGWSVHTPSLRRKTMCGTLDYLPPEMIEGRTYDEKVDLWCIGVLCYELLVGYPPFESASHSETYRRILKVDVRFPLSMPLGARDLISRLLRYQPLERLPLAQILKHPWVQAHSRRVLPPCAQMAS
Description: Recombinant Aurora-C protein was expressed in transiently transfected HEK293 cells and then purified. The kinase substrate used was the biotinylated peptide having the amino acid sequence biotin-FMRLRRLSTKYRT, which was purchased from Jerini AG in Berlin.
Aurora-C [5 nM in the test mixture, test volume 5 μl] was incubated in the presence of various concentrations of test substances (0 μM and 10 measurement points within the range 0.001-20 μM in duplicate) in assay buffer [25 mM HEPES pH 7.4, 0.5 mM MnCl2, 0.1 mM Na ortho-vanadate, 2.0 mM dithiothreitol, 0.05% bovine serum albumin (BSA), 0.01% Triton X-100, 3 μM adenosine trisphosphate (ATP), 0.67 nCi/μl gamma-^33P-ATP, 2.0 μM substrate peptide biotin-FMRLRRLSTKYRT, 1.0% dimethyl sulphoxide] at 22° C. for 90 min. The reaction was stopped by adding 12.5 μl of an EDTA/detection solution [16 mM EDTA, 40 mM ATP, 0.08% Triton X-100, 4 mg/ml PVT streptavidin SPA beads (from Amersham)]. After incubation for 10 minutes, the SPA beads were pelleted by centrifugation at 1000×G for 10 minutes. Measurement took place in a PerkinElmer Topcount scintillation counter. The measured data were normalized to 0% inhibition (enzyme reaction without inhibitor) and 100% inhibition (enzyme reaction in the presence of 0.1 μM staurosporine (from Sigma)). The IC50 values were determined by means of a 4-parameter fit using the company's own software.

[2] = target: T2, CDK1/CycB (Homo sapiens, UniProt P06493); test: CDK1/CycB kinase assay; format: biochemical; settings: 0.5 μM ATP, histone IIIS, 22° C., 10 min
T2 construct: GST; purchased ProQinase GmbH, Freiburg; host or cells: baculovirus-infected insect cells (Sf9)
Description: (§1) Recombinant CDK1- and CycB-GST fusion proteins, purified from baculovirus-infected insect cells (Sf9), were purchased from ProQinase GmbH, Freiburg. The histone IIIS used as kinase substrate can be purchased from Sigma. CDK1/CycB (200 ng/measurement point) was incubated in the presence of various concentrations of test substances (0 μM, and within the range 0.01-100 μM) in assay buffer [50 mM Tris/HCl pH 8.0, 10 mM MgCl2, 0.1 mM Na ortho-vanadate, 1.0 mM dithiothreitol, 0.5 μM ATP, 10 μg/measurement point histone IIIS, 0.2 μCi/measurement point ^33P-gamma-ATP, 0.05% NP40, 1.25% dimethyl sulphoxide] at 22° C. for 10 min. The reaction was stopped by adding EDTA solution (250 mM, pH 8.0, 15 μl/measurement point).
15 μl of each reaction mixture were loaded onto P30 filter strips (from Wallac), and non-incorporated ^33P-ATP was removed by washing the filter strips three times in 0.5% strength phosphoric acid for 10 min each time. After the filter strips had been dried at 70° C. for 1 hour, the filter strips were covered with scintillator strips (MeltiLex™ A, from Wallac) and baked at 90° C. for 1 hour. The amount of incorporated ^33P (substrate phosphorylation) was determined by scintillation measurement in a gamma radiation counter (Wallac).

[3] = target: T3, CDK2/CycE (Homo sapiens, UniProt P24941); test: CDK2/CycE kinase assay; format: biochemical; settings: 0.5 μM ATP, histone IIIS, 22° C., 10 min
T3 construct: GST; purchased ProQinase GmbH, Freiburg; host or cells: baculovirus-infected insect cells (Sf9)
Description: Recombinant CDK2- and CycE-GST fusion proteins, purified from baculovirus-infected insect cells (Sf9), were purchased from ProQinase GmbH, Freiburg. The histone IIIS used as kinase substrate was purchased from Sigma.
as §1, with “CDK2/CycE (50” for “Recombinant CDK1- and CycB-GST fusion proteins, purified from baculovirus-infected insect cells (Sf9), were purchased from ProQinase GmbH, Freiburg. The histone IIIS used as kinase substrate can be purchased from Sigma. CDK1/CycB (200”
15 μl of each reaction mixture were loaded onto P30 filter strips (from Wallac), and non-incorporated ^33P-ATP was removed by washing the filter strips three times in 0.5% strength phosphoric acid for 10 min each time.
After the filter strips had been dried at 70° C. for 1 hour, the filter strips were covered with scintillator strips (MeltiLex™ A, from Wallac) and baked at 90° C. for 1 hour. The amount of incorporated ^33P (substrate phosphorylation) was determined by scintillation measurement in a gamma radiation counter (Wallac).

[4] = target: T4, KDR (VEGFR2) (Homo sapiens, UniProt P35968); test: KDR kinase assay; format: biochemical; settings: 10 μM ATP, 22° C., 45 min, HTRF
T4 construct: made in house; host or cells: E. coli
Description: Recombinant KDR protein was expressed in E. coli and then purified. The kinase substrate used was the biotinylated peptide having the amino acid sequence biotin-DFGLARDMYDKEYYSVG, which was purchased from Biosynthan. KDR [test volume 5 μl] was incubated in the presence of various concentrations of test substances (0 μM, and 10 measurement points within the range 0.001-20 μM in duplicate) in assay buffer [50 mM HEPES pH 7.0, 25.0 mM MgCl2, […], 0.1 mM Na ortho-vanadate, 1.0 mM dithiothreitol, 0.001% NP40, 10 μM ATP, 0.03 μM substrate peptide […], 1.0% dimethyl sulphoxide] at 22° C. for 45 min. The reaction was stopped by adding 5 μl of an EDTA/detection solution [50 mM HEPES pH 7.5, 125 mM EDTA, 0.2% BSA, 0.1 μM streptavidin-XLent (from CisBio), 2 nM PT66-Eu (from PerkinElmer)]. The fluorescence emission at 620 nm and 665 nm after excitation with light of the wavelength 350 nm was measured in a Rubystar HTRF instrument from BMG Labsystems.
The measured data (ratio of emission 665 divided by emission 620 multiplied by 10 000) were normalized to 0% inhibition (enzyme reaction without inhibitor) and 100% inhibition (all assay components apart from enzyme). The IC50 values were determined by means of a 4-parameter fit using the company's own software.

[5] = tested on: MCF7 breast tumour cells; test: MCF7 proliferation assay; format: cell-based, human; settings: for IC50: Homo sapiens, MCF7, 96 h, 4 days incubation, crystal violet staining; for antiproliferative activity, MCF7 (in words): summary of Tab. 2
Description: Cultivated human MCF7 breast tumour cells (ATCC HTB-22) were plated out in a density of 5000 cells/measurement point in 200 μl of growth medium (RPMI1640, 10% foetal calf serum, 2 mU/mL insulin, 0.1 nM oestradiol) in a 96-well multititre plate. After 24 hours, the cells from a plate (zero plate) were stained with crystal violet (see below), while the medium in the other plates was replaced by fresh culture medium (200 μl) to which the test substances had been added in various concentrations (0 μM, and in the range 0.1-30 μM; the final concentration of the solvent dimethyl sulphoxide was 0.5%). The cells were incubated in the presence of the test substances for 4 days. The cell proliferation was determined by staining the cells with crystal violet: the cells were fixed by adding 20 μl/measurement point of an 11% strength glutaraldehyde solution at room temperature for 15 min. After the fixed cells had been washed three times with water, the plates were dried at room temperature. The cells were stained by adding 100 μl/measurement point of a 0.1% strength crystal violet solution (pH adjusted to pH 3 by adding acetic acid). After the stained cells had been washed three times with water, the plates were dried at room temperature. The dye was dissolved by adding 100 μl/measurement point of a 10% strength acetic acid solution, and the extinction was determined by photometry at a wavelength of 595 nm. The percentage change in cell growth was calculated by normalizing the measurements to the extinctions of the zero point plate (=0%) and the extinction of the untreated (0 μM) cells (=100%). The IC50 values were determined by means of a 4-parameter fit using the company's own software.

T2 sequence (P06493 whole entry): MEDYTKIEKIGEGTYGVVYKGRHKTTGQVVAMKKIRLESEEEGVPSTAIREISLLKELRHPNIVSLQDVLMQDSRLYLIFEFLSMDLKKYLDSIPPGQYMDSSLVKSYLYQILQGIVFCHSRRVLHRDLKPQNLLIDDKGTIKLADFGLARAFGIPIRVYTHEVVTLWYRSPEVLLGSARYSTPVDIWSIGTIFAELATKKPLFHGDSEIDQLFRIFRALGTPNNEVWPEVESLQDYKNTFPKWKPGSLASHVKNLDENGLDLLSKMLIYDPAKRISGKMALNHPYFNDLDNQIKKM
T2 sequence (P14635 whole entry partner): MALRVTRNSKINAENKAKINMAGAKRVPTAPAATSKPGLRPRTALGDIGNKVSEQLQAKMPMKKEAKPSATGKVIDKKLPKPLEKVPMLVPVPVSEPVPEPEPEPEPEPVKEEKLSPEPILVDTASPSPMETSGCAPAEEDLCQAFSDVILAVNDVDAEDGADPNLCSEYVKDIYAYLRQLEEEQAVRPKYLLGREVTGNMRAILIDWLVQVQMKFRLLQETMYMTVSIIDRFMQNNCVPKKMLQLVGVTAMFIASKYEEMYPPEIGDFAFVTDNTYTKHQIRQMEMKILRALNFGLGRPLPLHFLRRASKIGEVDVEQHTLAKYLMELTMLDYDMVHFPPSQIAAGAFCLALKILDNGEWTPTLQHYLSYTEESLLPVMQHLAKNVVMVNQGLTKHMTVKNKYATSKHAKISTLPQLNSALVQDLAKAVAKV
T4 sequence (P35968 20-1356, species assumed): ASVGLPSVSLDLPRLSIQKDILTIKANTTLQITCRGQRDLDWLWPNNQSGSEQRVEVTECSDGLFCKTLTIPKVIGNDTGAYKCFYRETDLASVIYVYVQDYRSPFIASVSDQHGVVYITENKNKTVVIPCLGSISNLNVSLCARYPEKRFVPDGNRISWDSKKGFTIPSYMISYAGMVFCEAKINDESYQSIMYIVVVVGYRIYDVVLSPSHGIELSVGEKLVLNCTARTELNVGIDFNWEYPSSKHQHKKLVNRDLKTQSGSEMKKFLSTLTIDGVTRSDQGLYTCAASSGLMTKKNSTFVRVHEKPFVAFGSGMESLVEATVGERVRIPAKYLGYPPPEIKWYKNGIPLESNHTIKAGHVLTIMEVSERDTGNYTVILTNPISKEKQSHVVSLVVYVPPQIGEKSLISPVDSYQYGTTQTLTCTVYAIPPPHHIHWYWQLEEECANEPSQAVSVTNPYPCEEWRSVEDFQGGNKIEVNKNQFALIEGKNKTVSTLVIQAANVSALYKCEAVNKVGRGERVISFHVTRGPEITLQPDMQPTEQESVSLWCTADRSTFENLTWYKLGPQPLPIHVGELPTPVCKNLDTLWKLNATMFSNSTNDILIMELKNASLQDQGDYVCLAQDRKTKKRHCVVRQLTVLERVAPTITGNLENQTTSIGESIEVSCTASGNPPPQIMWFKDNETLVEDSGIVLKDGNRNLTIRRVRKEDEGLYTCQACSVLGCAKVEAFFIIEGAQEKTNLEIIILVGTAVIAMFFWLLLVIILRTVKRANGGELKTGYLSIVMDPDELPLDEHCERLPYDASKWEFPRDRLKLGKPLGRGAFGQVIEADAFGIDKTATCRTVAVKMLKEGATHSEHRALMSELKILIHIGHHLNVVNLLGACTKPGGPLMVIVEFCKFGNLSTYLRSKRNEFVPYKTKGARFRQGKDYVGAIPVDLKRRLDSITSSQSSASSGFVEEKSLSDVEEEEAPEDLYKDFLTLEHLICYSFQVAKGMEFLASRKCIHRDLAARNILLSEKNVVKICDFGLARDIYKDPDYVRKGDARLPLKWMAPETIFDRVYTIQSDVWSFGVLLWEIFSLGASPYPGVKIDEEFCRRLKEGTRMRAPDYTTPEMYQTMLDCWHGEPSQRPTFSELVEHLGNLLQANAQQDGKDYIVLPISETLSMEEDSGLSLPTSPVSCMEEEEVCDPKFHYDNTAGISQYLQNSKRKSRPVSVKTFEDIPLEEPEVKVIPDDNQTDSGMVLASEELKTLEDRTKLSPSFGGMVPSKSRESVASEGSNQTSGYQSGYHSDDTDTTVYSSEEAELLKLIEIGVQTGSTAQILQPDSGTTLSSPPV

Compound | IC50 [1] | inhibition of Aurora C kinase (in words) [1] | IC50 [2] | IC50 [3] | IC50 [4] | IC50 [5] | antiproliferative activity, MCF7 (in words) [5]
Cc1ccc(S(=O)(=O)N=S(C)c2ccc(Nc3ncc(Br)c(N[C@H](C)CO)n3)cc2)cc1 (mixture of isomers) [Example 8, (RS)—S-{4-[(5-Bromo-4-{[(R)-2-hydroxy-1-methylethyl]amino}pyrimidin-2-yl)-amino]phenyl}-S-methyl-N-(tolylsulphonyl)sulphimide] | 360 nM | inhibits | 620 nM | 99 nM | 22 nM | 900 nM | 
Cc1ccc(S(=O)(=O)N=S(C)c2ccc(Nc3ncc(Br)c(N[C@H](C)C(C)(C)O)n3)cc2)nc1 (mixture of isomers) [Example 10, (RS)—S-{4-[(5-Bromo-4-{[(R)-2-hydroxy-1,2-dimethylpropyl]amino}pyrimidin-2-yl)amino]phenyl}-S-methyl-N-[(5-methyl-2-pyridyl)sulphonyl]sulphimide] |  |  |  |  |  |  | excellent antiproliferative activity
C[C@@H](Nc1nc(Nc2ccc(S(C)=NS(=O)(=O)c3ccc(Cl)s3)cc2)ncc1Br)C(C)(C)O (mixture of isomers) [Example 17, (RS)—S-{4-[(5-Bromo-4-{[(R)-2-hydroxy-1,2-dimethylpropyl]amino}pyrimidin-2-yl)amino]phenyl}-N-[(5-chloro-2-thienyl)sulphonyl]-S-methylsulphimide] |  |  |  |  |  |  | excellent antiproliferative activity
Cc1ccc(S(=O)(=O)N=S(C)c2cccc(Nc3ncc(Br)c(NC(C)C)n3)c2)cc1 (racemic) [Example 2, (RS)—S-(3-{[5-Bromo-4-(isopropylamino)pyrimidin-2-yl]amino}phenyl)-S-methyl-N-(tolylsulphonyl)sulphimide] |  |  | > 1000 nM | > 1000 nM | 200 nM |  | 
Cc1ccc(S(=O)(=O)N=S(C)c2ccc(Nc3ncc(Br)c(NC4CC4)n3)cc2)cc1 (racemic) [Example 3, (RS)—S-(4-{[5-Bromo-4-(cyclopropylamino)pyrimidin-2-yl]amino}phenyl)-S-methyl-N-(tolylsulphonyl)sulphimide] | 90 nM | inhibits | > 1000 nM |  | 13 nM | 340 nM | 
Cc1ccc(S(=O)(=O)N=S(C)c2cccc(Nc3ncc(Br)c(NC4CC4)n3)c2)cc1 (racemic) [Example 4, (RS)—S-(3-{[5-Bromo-4-(cyclopropylamino)pyrimidin-2-yl]amino}phenyl)-S-methyl-N-(tolylsulphonyl)sulphimide] |  |  | > 1000 nM | > 1000 nM | 170 nM |  | 
Cc1ccc(S(=O)(=O)N=S(C)c2ccc(Nc3nccc(NC(C)C)n3)cc2)cc1 (racemic) [Example 5, (RS)—S-(4-{[4-(Isopropylamino)pyrimidin-2-yl]amino}phenyl)-S-methyl-N-(tolylsulphonyl)sulphimide] | 4600 nM |  | > 1000 nM | > 1000 nM | 760 nM |  | 
Cc1ccc(S(=O)(=O)N=S(C)c2ccc(Nc3ncc(Br)c(Nc4ccccc4)n3)cc2)cc1 (racemic) [Example 6, (RS)—S-{4-[(4-Anilino-5-bromopyrimidin-2-yl)amino]phenyl}-S-methyl-N-(tolylsulphonyl)sulphimide] |  |  | > 1000 nM | > 1000 nM | 120 nM |  | 
Cc1ccc(S(=O)(=O)N=S(C)c2ccc(Nc3ncc(Br)c(NCCO)n3)cc2)cc1 (racemic) [Example 7, (RS)—S-[4-({5-Bromo-4-[(2-hydroxyethyl)amino]pyrimidin-2-yl}amino)phenyl]-S-methyl-N-(tolylsulphonyl)sulphimide] | 680 nM |  | > 1000 nM | > 1000 nM | 43 nM |  | 
CC(=O)NCCNc1nc(Nc2ccc(S(C)=NS(=O)(=O)c3ccc(C)cc3)cc2)ncc1Br (racemic) [Example 23, (RS)—S-{4-[(4-{[2-(Acetylamino)ethyl]amino}-5-bromopyrimidin-2-yl)amino]-phenyl}-S-methyl-N-(tolylsulphonyl)sulphimide] | 36 nM |  | 990 nM |  | 35 nM | 2200 nM | 
